Test results reported in PubChem BioAssay AID2060501 (Molecular Pharmacology Branch, DTP, NCI, 2025).
pIC50: −log10 of the molar value.

System: 282377-053-R-J1-PDC complex spheroids, viability
Test: Anticancer human tumor 282377-053-R-J1-PDC patient-derived colon adenocarcinoma cell line growth inhibition [GQUAD]
Conditions: for pIC50: curve of first compound; for viability, T/C: stronger effect = lower value
Description: DNA G-quadruplex Stabilizer Agents in Combinations in Complex Spheroids
A high-throughput screen of multi-cell type tumor spheroids was designed to identify active combinations of DNA G-quadruplex stabilizer agents and targeted small molecules. Complex spheroids include a stromal component modeled by human endothelial cells (HUVEC) and fibroblasts modeled by human mesenchymal stem cells (MSCs). The concentration ranges selected for each drug and investigational agent were based upon clinically achievable concentrations if the clinical Cmax of the agent was known.
Compounds. The drugs and investigational agents: pidnarulex (CX-5461; NSC782164), APTO-253 (NSC789042), BRACO-19 (NSC847499), peposertib (NSC802822), ceralasertib (NSC780249), elimusertib (NSC800525), camonsertib (NSC841442), AZD-1390 (NSC803789), olaparib (NSC753686), talazoparib (NSC767125), ART-558 (NSC835418), sotorasib (NSC818433), MRTX-1133 (NSC836407), SN-38 (NSC673596), topotecan (NSC609699), etoposide (NSC141540), doxorubicin (NSC123127), gemcitabine (NSC613327), 5-fluorouracil (NSC19893), paclitaxel (NSC125973), vemurafenib (NSC761431), panobinostat (NSC761190), R-306465 (JNJ-16241199; NSC773264), adavosertib (NSC754352), TP-3654 (NSC805149), carboplatin (NSC241240), KSQ-4279 (NSC840948), and staurosporine (NSC755774) were obtained from the National Cancer Institute (NCI) Developmental Therapeutics Program Chemical Repository (34). The FDA-approved anticancer drug set is available from the NCI Developmental Therapeutics Program. […] The stock solutions were prepared in dimethyl sulfoxide (DMSO, Sigma-Aldrich, St. Louis, MO, cat. D2650) at 800-fold the tested concentration and stored at -70 degrees C prior to their use. All drugs and investigational agents were tested over a range starting from a high concentration at or near the clinical Cmax and decreasing in half-log increments. If the clinical Cmax for an agent had not been determined, the highest concentration tested was 10 microM.
2.3 Cell Culture. All cells were maintained in an incubator at 37 degrees C and 5% CO2 with 95% humidity. The PDC lines were cultured according to standard operating procedures established by the NCI PDMR. All PDCs were thawed and cultured in Matrigel-coated flasks prepared with a working solution of 1X Ham's F-12 nutrient mix, without supplementation (Invitrogen, cat. 11765054), 100 U/mL penicillin-streptomycin (Invitrogen, cat. 15140122), and 2.5% Matrigel (Corning Inc., cat. 354248) for the first three passages. The 857933-349-R-J2-PDC line was cultured in 6C/Colon 1B media, which includes advanced DMEM/F-12 (Thermo Fisher Scientific, cat. 12634028), 10 mM HEPES (Thermo Fisher Scientific, cat. 15630080), 1X GlutaMAX supplement (Thermo Fisher Scientific, cat. 35050061), 0.1 mg/mL primocin (InvivoGen, cat. ant-pm-2), 10% defined fetal bovine serum, heat inactivated (HyClone Laboratories Inc., cat. SH30070.03HI), 50% L-WRN conditioned media (ATCC, cat. CRL-3276), 1.25 mM N-Acetyl-L-cysteine (Sigma-Aldrich, cat. A9165), 10 mM nicotinamide (Sigma-Aldrich, cat. N0636), 1X B-27 supplement (Thermo Fisher Scientific, cat. 17504044), 1X N-2 supplement (Thermo Fisher Scientific, cat. 17502048), 10 microM Y-27632 dihydrochloride (Tocris Bioscience, cat. 1254), and 50 ng/mL human EGF recombinant protein (Thermo Fisher Scientific, cat. PHG0311). The 485176-168-R4-J1-PDC line was cultured in Panc media, which includes all 6C/Colon 1B media components plus 100 ng/mL human FGF-10 (Thermo Fisher Scientific, cat. 100-26), 500 nM SB-431542 (Selleckchem, cat. S1067), and gastrin (Tocris, cat. 3006).
[…]

[1] = second compound 0.0316 µM, first compound 0.0316 µM
[2] = second compound 0.0316 µM, first compound 0.1 µM
[3] = second compound 0.0316 µM, first compound 0.316 µM
[4] = second compound 0.0316 µM, first compound 1 µM
[5] = second compound 0.0316 µM, first compound 3.16 µM
[6] = second compound 0.0316 µM, first compound 10 µM
[7] = second compound 0.1 µM, first compound 0.0316 µM
[8] = second compound 0.1 µM, first compound 0.1 µM
[9] = second compound 0.1 µM, first compound 0.316 µM
[10] = second compound 0.1 µM, first compound 1 µM
[11] = second compound 0.1 µM, first compound 3.16 µM
[12] = second compound 0.1 µM, first compound 10 µM
[13] = second compound 0.316 µM, first compound 0.0316 µM
[14] = second compound 0.316 µM, first compound 0.1 µM
[15] = second compound 0.316 µM, first compound 0.316 µM
[16] = second compound 0.316 µM, first compound 1 µM
[17] = second compound 0.316 µM, first compound 3.16 µM
[18] = second compound 0.316 µM, first compound 10 µM
[19] = second compound 1 µM, first compound 0.0316 µM
[20] = second compound 1 µM, first compound 0.1 µM
[21] = second compound 1 µM, first compound 0.316 µM
[22] = second compound 1 µM, first compound 1 µM
[23] = second compound 1 µM, first compound 3.16 µM
[24] = second compound 1 µM, first compound 10 µM
[25] = second compound 3.16 µM, first compound 0.0316 µM
[26] = second compound 3.16 µM, first compound 0.1 µM
[27] = second compound 3.16 µM, first compound 0.316 µM
[28] = second compound 3.16 µM, first compound 1 µM
[29] = second compound 3.16 µM, first compound 3.16 µM
[30] = second compound 3.16 µM, first compound 10 µM
[31] = second compound 10 µM, first compound 0.0316 µM
[32] = second compound 10 µM, first compound 0.1 µM
[33] = second compound 10 µM, first compound 0.316 µM
[34] = second compound 10 µM, first compound 1 µM
[35] = second compound 10 µM, first compound 3.16 µM
[36] = second compound 10 µM, first compound 10 µM
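Also: spheroids exposed to compounds for 7 days before readout.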
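For viability, T/C in this document: percent of vehicle DMSO control viability with 100% = untreated-like growth.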

CC1COCCN1c1cc(C2(S(C)(=N)=O)CC2)nc(-c2ccnc3[nH]ccc23)n1 (centres undefined) + CN(C)c1ccc(Nc2c3ccc(NC(=O)CCN4CCCC4)cc3nc3cc(NC(=O)CCN4CCCC4)ccc23)cc1 was tested, and the pIC50 (second compound 0.0316 µM) was 5.07, the pIC50 (second compound 0.1 µM) was 5.17 and the pIC50 (second compound 0.316 µM) was 5.22. The pIC50 (second compound 1 µM) was < 5.00, the pIC50 (second compound 3.16 µM) was < 5.00 and the pIC50 (second compound 10 µM) was < 5.00. For the same compound, the viability, T/C [1] was 102%, the viability, T/C [2] was 90.3% and the viability, T/C [3] was 73%. The viability, T/C [4] was 79.6%, the viability, T/C [5] was 67.8% and the viability, T/C [6] was 42.2%. For the same compound, the viability, T/C [7] was 95.1%, the viability, T/C [8] was 77.2% and the viability, T/C [9] was 81.2%. It also gave a viability, T/C [10] of 76.5%, a viability, T/C [11] of 69.3% and a viability, T/C [12] of 40.5%. The viability, T/C [13] was 85.5%, the viability, T/C [14] was 83.3% and the viability, T/C [15] was 74.4%. For the same compound, the viability, T/C [16] was 76.2%, the viability, T/C [17] was 61.8% and the viability, T/C [18] was 40.8%. For the same compound, the viability, T/C [19] was 89.8%, the viability, T/C [20] was 83.7% and the viability, T/C [21] was 94.2%. It also gave a viability, T/C [22] of 67.6%, a viability, T/C [23] of 58.8% and a viability, T/C [24] of 46.2%. For the same compound, the viability, T/C [25] was 86%, the viability, T/C [26] was 89.2% and the viability, T/C [27] was 86.3%. The viability, T/C [28] was 68.5%, the viability, T/C [29] was 64.4% and the viability, T/C [30] was 49.6%. It also gave a viability, T/C [31] of 82.7%, a viability, T/C [32] of 88.4% and a viability, T/C [33] of 116%. For the same compound, the viability, T/C [34] was 59.7%, the viability, T/C [35] was 80% and the viability, T/C [36] was 56%.
For COc1ccc([C@@H](O)c2cc(-c3ncnc4cc(N5CCOCC5)ccc34)c(F)cc2Cl)nn1 + CN(C)c1ccc(Nc2c3ccc(NC(=O)CCN4CCCC4)cc3nc3cc(NC(=O)CCN4CCCC4)ccc23)cc1, the pIC50 (second compound 0.0316 µM) was < 5.00, the pIC50 (second compound 0.1 µM) was < 5.00 and the pIC50 (second compound 0.316 µM) was 5.03. The pIC50 (second compound 1 µM) was < 5.00, the pIC50 (second compound 3.16 µM) was < 5.00 and the pIC50 (second compound 10 µM) was < 5.00. The viability, T/C [1] was 96.4%, the viability, T/C [2] was 92.5% and the viability, T/C [3] was 80.6%. For the same compound, the viability, T/C [4] was 71.3%, the viability, T/C [5] was 81.7% and the viability, T/C [6] was 64.9%. For the same compound, the viability, T/C [7] was 89.2%, the viability, T/C [8] was 75.3% and the viability, T/C [9] was 95%. The viability, T/C [10] was 72.8%, the viability, T/C [11] was 86.2% and the viability, T/C [12] was 60.1%. It also gave a viability, T/C [13] of 89.1%, a viability, T/C [14] of 81% and a viability, T/C [15] of 76.4%. It also gave a viability, T/C [16] of 78.2%, a viability, T/C [17] of 82.1% and a viability, T/C [18] of 48.3%. The viability, T/C [19] was 81.2%, the viability, T/C [20] was 83.2% and the viability, T/C [21] was 97.6%. The viability, T/C [22] was 62.4%, the viability, T/C [23] was 77.4% and the viability, T/C [24] was 66.6%. For the same compound, the viability, T/C [25] was 87.3%, the viability, T/C [26] was 83.8% and the viability, T/C [27] was 81.2%. It also gave a viability, T/C [28] of 85%, a viability, T/C [29] of 102% and a viability, T/C [30] of 61.3%. For the same compound, the viability, T/C [31] was 89.3%, the viability, T/C [32] was 72.6% and the viability, T/C [33] was 90.1%. For the same compound, the viability, T/C [34] was 74.5%, the viability, T/C [35] was 76.4% and the viability, T/C [36] was 79.4%.
